Assay results: patent US11236086B2, “Substituted pyrrolopyridines as inhibitors of activin receptor-like kinase” (BLUEPRINT MEDICINES CORPORATION, priority 2017, dated 2022)

target: T1, ALK2R206H (mutant ALK2, N-terminally tagged with GST) (Homo sapiens, UniProt Q04771, R206H); experiment: ALK binding assay (LANTHASCREEN TR-FRET competitive binding, displacement of Kinase Tracer 178); conditions: read-out: Binding Assay (IC50 class)
T1 construct: purchased Carna Bioscience or ThermoFisher 09-148 or PV6232
T1 sequence (Q04771 21-509 R206H): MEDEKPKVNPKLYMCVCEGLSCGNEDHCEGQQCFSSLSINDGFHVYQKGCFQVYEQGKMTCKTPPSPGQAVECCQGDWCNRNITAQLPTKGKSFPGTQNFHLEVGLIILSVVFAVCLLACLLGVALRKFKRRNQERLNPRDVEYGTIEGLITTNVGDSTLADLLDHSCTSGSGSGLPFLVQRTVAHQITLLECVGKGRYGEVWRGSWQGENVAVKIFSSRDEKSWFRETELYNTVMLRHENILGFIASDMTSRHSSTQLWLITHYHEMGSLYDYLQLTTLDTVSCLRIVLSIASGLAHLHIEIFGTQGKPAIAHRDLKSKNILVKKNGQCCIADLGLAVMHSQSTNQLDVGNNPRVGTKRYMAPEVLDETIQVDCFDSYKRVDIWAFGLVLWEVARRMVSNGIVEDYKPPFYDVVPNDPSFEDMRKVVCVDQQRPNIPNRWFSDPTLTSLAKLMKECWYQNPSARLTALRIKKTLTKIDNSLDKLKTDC
Description: Example 10 ALK Binding Assays
Binding assays were conducted using the LANTHASCREEN® technology (ThermoFisher Scientific). LANTHASCREEN® is a competitive binding, displacement assay where the assumed steady state occupancy of the binding site is measured using a time-resolved, fluorescence energy transfer (TR-FRET) readout between a fluorescent tracer and Europium (Eu)-tagged antibody specific for the kinase or expression tag (e.g., GST) of interest. Displacement of the tracer by a compound of the disclosure reduces, and is directly proportional to, the TR-FRET between the tracer and the antibody. Tracer was used at a concentration equal to or near to its Kd for the kinase. The Eu-tagged antibody was typically used in excess to ensure sampling of all competent protein capable of binding the tracer.
For these assays, a mutant ALK2 was used that was N-terminally tagged with GST (ALK2R206H Carna Bioscience (09-148) or ALK2R206H ThermoFisher (PV6232)); a Eu-tagged anti-GST antibody (ThermoFisher) and Kinase Tracer 178 (ThermoFisher).
In all cases, the kinase (2-5 nM) was mixed with Eu-tagged antibody (4-10 nM) mix and tracer (50 nM) were incubated with test compound titrations prepared in 100% DMSO (1% DMSO final) for 30 minutes at room temperature. All reagents and compounds were dissolved in Kinase Buffer A (ThermoFisher) to achieve the final concentration. The plates were read on a PerkinElmer EnVision® multilabel plate reader or a BioTek Synergy Neo plate reader, and the assay signal was represented as a ratio of the TR-FRET emission (λex 330 nm, λ^em […] and λ^em 665 nm). This readout was normalized to 0% and 100% inhibited control wells, plotted against inhibitor concentration, and fitted to a 4-parameter log dose response curve.
The results of this assay are shown in Table 3 in the column labelled “Binding Assay” wherein “A” represents an IC50 of less than or equal to 10 nM; “B” represents an IC50 of greater than 10 nM and less than or equal to 50 nM; and “C” represents an IC50 of greater than 50 nM. Blank values in the table indicate that the particular compound was not tested in this assay.

Row | IC50 | SMILES
1 | > 50 nM | O=C(C1CC1)N1CCN(c2ccnc3[nH]c(-c4ccc(C5CC5)cc4)cc23)CC1 [Compound 119]
2 | 10 to 50 nM | CCOC(=O)N1CCN(c2ccnc3[nH]c(-c4nn(C)cc4C#N)cc23)CC1 [Compound 72]
3 | ≤ 10 nM | Cn1cc(-c2cc3c(N4CCN(C(=O)OCCOC5CCCCC5)CC4)ccnc3[nH]2)cn1 [Compound 405]
4 | ≤ 10 nM | CCOC(=O)N1CCN(c2ccnc3[nH]c(-c4ncccn4)cc23)CC1 [Compound 9]
5 | ≤ 10 nM | CCOC(=O)N1CCN(c2ccnc3[nH]c(-c4cnn(C)c4)c(CC)c23)CC1 [Compound 99]
6 | > 50 nM | Cc1n[nH]c(C)c1-c1cc2c(N3CCN(C(=O)OC4COC4)CC3)ccnc2[nH]1 [Compound 157]
7 | ≤ 10 nM | O=C(OC1COC1)N1CCN(c2ccnc3[nH]c(-c4cn[nH]c4)cc23)CC1 [Compound 36]
8 | ≤ 10 nM | CCOC(=O)N1CCN(c2ccnc3[nH]c(-c4scnc4C#N)cc23)CC1 [Compound 95]
9 | > 50 nM | CCOCC(=O)N1CCN(c2ccnc3[nH]c(-c4cnn(C)c4)cc23)CC1 [Compound 43]
10 | ≤ 10 nM | Cn1cc(-c2cc3c(N4CCN(C(=O)[C@H]5CCOC5)CC4)ccnc3[nH]2)cn1 [Compound 78]
11 | 10 to 50 nM | Cn1cc(-c2cc3c(N4CCN(C(=O)OCCS(C)(=O)=O)CC4)ccnc3[nH]2)cn1 [Compound 338]
12 | > 50 nM | Cc1ccccc1-c1cc2c(N3CCN(C(=O)C4CC4)CC3)ccnc2[nH]1 [Compound 14]
13 | 10 to 50 nM | O=C(C1CC1)N1CCN(c2ccnc3[nH]c(-c4ccc(C(F)(F)F)cc4)cc23)CC1 [Compound 253]
14 | ≤ 10 nM | Cn1cc(-c2cc3c(N4CCN(C(=O)OCC5CC5)CC4)ccnc3[nH]2)cn1 [Compound 80]
15 | ≤ 10 nM | Cn1cc(-c2cc3c(N4CCN(C(=O)OCC5CCCCO5)CC4)ccnc3[nH]2)cn1 (stereo not shown) [Compound 306]
16 | ≤ 10 nM | Cc1nc(-c2[nH]c3nccc(N4CCN(C(=O)OC5COC5)CC4)c3c2C#N)co1 [Compound 216]
17 | ≤ 10 nM | N#Cc1cc(C2(O)CCOCC2)ccc1-c1cc2c(N3CCN(C(=O)OC4COC4)CC3)ccnc2[nH]1 [Compound 465]
18 | ≤ 10 nM | O=C(C1CC1)N1CCN(c2ccnc3[nH]c(-c4ccc(CO)cc4)cc23)CC1 [Compound 57]
19 | ≤ 10 nM | Cn1cnc(-c2cc3c(N4CCN(C(=O)O[C@@H]5CC(F)(F)C5(F)F)CC4)ccnc3[nH]2)c1 [Compound 400]
20 | 10 to 50 nM | O=C(OC1COC1)N1CCN(c2ccnc3[nH]c(-c4nc(C(F)(F)F)cs4)cc23)CC1 [Compound 410, oxetan-3-yl 4-(2-(4-(trifluoromethyl)thiazol-2-yl)-1H-pyrrolo[2,3-b]pyridin-4-yl)piperazine-1-carboxylate]
21 | 10 to 50 nM | Cc1nsc(-c2cc3c(N4CCN(C(=O)OC5COC5)CC4)ccnc3[nH]2)n1 [Compound 182]

Row | IC50 | SMILES
22 | ≤ 10 nM | Cc1nc(-c2[nH]c3nccc(N4CCN(C(=O)OC5COC5)CC4)c3c2Cl)sc1C [Compound 391]
23 | 10 to 50 nM | CCOC(=O)N1CCN(c2ccnc3[nH]c(-c4nn(C)cc4C)cc23)CC1 [Compound 42]
24 | 10 to 50 nM | O=C(C1CC1)N1CCN(c2ccnc3[nH]c(-c4ccc(Cl)cc4)cc23)CC1 [Compound 84]
25 | 10 to 50 nM | O=C(C1CC1)N1CCN(c2ccnc3[nH]c(-c4cccc(F)c4)cc23)CC1 [Compound 17]
26 | ≤ 10 nM | Cn1cc(-c2cc3c(N4CCN(C(=O)C5CCC5)CC4)ccnc3[nH]2)cn1 [Compound 20]
27 | ≤ 10 nM | CC(C)(O)Cn1cc(-c2cc3c(N4CCN(C(=O)C5CC5)CC4)ccnc3[nH]2)cn1 [Compound 222]
28 | 10 to 50 nM | Cn1cc(-c2cc3c(N4CCN(C(=O)CCC5CCCC5)CC4)ccnc3[nH]2)cn1 [Compound 206]
29 | ≤ 10 nM | CC(C)(C)OC(=O)NC1(c2ccc(-c3cc4c(N5CCN(C(=O)C6CC6)CC5)ccnc4[nH]3)cc2)CC1 [Compound 463]
30 | ≤ 10 nM | CC(C)OCCOC(=O)N1CCN(c2ccnc3[nH]c(-c4cnn(C)c4)cc23)CC1 [Compound 247]
31 | ≤ 10 nM | CCN1CCN(c2ccc(-c3cc4c(N5CCN(C(=O)C6CC6)CC5)ccnc4[nH]3)c3ncccc23)CC1 [Compound 471]
32 | 10 to 50 nM | O=C(C1CC1)N1CCN(c2ccnc3[nH]c(-c4ccccc4)cc23)CC1 [Compound 3]
33 | ≤ 10 nM | Cc1ncc(-c2[nH]c3nccc(N4CCN(C(=O)OC5COC5)CC4)c3c2C#N)o1 [Compound 217]
34 | 10 to 50 nM | Cc1cnc(-c2cc3c(N4CCN(C(=O)OC5COC5)CC4)ccnc3[nH]2)o1 [Compound 108]
35 | ≤ 10 nM | Cc1ccc(-c2cc3c(N4CCN(C(=O)OC5COC5)CC4)ccnc3[nH]2)s1 [Compound 168]
36 | ≤ 10 nM | Cc1[nH]ncc1-c1cc2c(N3CCN(C(=O)OC4COC4)CC3)ccnc2[nH]1 [Compound 92]
37 | ≤ 10 nM | N#Cc1ncc(-c2cc3c(N4CCN(C(=O)OC5COC5)CC4)ccnc3[nH]2)s1 [Compound 229]
38 | ≤ 10 nM | O=C(OC1COC1)N1CCN(c2ccnc3[nH]c(-c4nc5c(s4)COCC5)c(Cl)c23)CC1 [Compound 443]
39 | > 50 nM | O=C(C1CC1)N1CCN(c2ccnc3[nH]c(-c4ccc(C(F)(F)F)cc4Cl)cc23)CC1 [Compound 393]
40 | ≤ 10 nM | CCC(=O)c1ccc(-c2cc3c(N4CCN(C(=O)C5CC5)CC4)ccnc3[nH]2)cc1 [Compound 184]
41 | 10 to 50 nM | CCS(=O)(=O)CCOC(=O)N1CCN(c2ccnc3[nH]c(-c4cnn(C)c4)cc23)CC1 [Compound 384]
42 | ≤ 10 nM | COC1(c2ccc(-c3cc4c(N5CCN(C(=O)OC6COC6)CC5)ccnc4[nH]3)nc2)CCOCC1 [Compound 457]

Row | IC50 | SMILES
43 | 10 to 50 nM | CCN1CCN(c2ccc(-c3cc4c(N5CCN(C(=O)C6CC6)CC5)ccnc4[nH]3)c(OC)c2)CC1 [Compound 454]
44 | 10 to 50 nM | CCOC(=O)N1CCN(c2ccnc3[nH]c(-c4cnn(C)c4COC)cc23)CC1 [Compound 166]
45 | ≤ 10 nM | Cc1nc(-c2[nH]c3nccc(N4CCN(C(=O)OC5COC5)CC4)c3c2C#N)sc1C [Compound 360]
46 | ≤ 10 nM | Cn1cc(-c2cc3c(N4CCN(C(=O)OCC5CCCO5)CC4)ccnc3[nH]2)cn1 (stereo not shown) [Compound 238]
47 | ≤ 10 nM | CCc1c(-c2cnn(C)c2)[nH]c2nccc(N3CCN(C(=O)OC4COC4)CC3)c12 [Compound 237]
48 | ≤ 10 nM | O=C(OC1COC1)N1CCN(c2ccnc3[nH]c(-c4ncc(C(F)(F)F)s4)cc23)CC1 [Compound 409]
49 | 10 to 50 nM | Cc1coc(-c2cc3c(N4CCN(C(=O)OC5COC5)CC4)ccnc3[nH]2)n1 [Compound 107]
50 | > 50 nM | COc1ccccc1-c1cc2c(N3CCN(C(=O)C4CC4)CC3)ccnc2[nH]1 [Compound 58]
51 | 10 to 50 nM | O=C(C1CC1)N1CCN(c2ccnc3[nH]c(-c4ccc(C5CCCCC5)cc4)cc23)CC1 [Compound 319]
52 | 10 to 50 nM | Cc1c(-c2cc3c(N4CCN(C(=O)C5CC5)CC4)ccnc3[nH]2)cnn1C [Compound 22]
53 | ≤ 10 nM | CCc1c(-c2cc3c(N4CCN(C(=O)OC5COC5)CC4)ccnc3[nH]2)cnn1C [Compound 235]
54 | ≤ 10 nM | COCCCOC(=O)N1CCN(c2ccnc3[nH]c(-c4cnn(C)c4)cc23)CC1 [Compound 163]
55 | 10 to 50 nM | Cc1cccc(-c2cc3c(N4CCN(C(=O)C5CC5)CC4)ccnc3[nH]2)c1 [Compound 15]
56 | ≤ 10 nM | CCOC(=O)N1CCN(c2ccnc3[nH]c(-c4ccc(C5(OC)CCOCC5)cn4)cc23)CC1 [Compound 430]
57 | ≤ 10 nM | Cn1cc(-c2cc3c(N4CCN(C(=O)OCC5CCC5)CC4)ccnc3[nH]2)cn1 [Compound 143]
58 | ≤ 10 nM | CCOCCOC(=O)N1CCN(c2ccnc3[nH]c(-c4cnn(C)c4)cc23)CC1 [Compound 164]
59 | 10 to 50 nM | O=C(C1CC1)N1CCN(c2ccnc3[nH]c(-c4ccc(Oc5ccccc5)cc4)cc23)CC1 [Compound 361]
60 | ≤ 10 nM | Cn1cc(-c2cc3c(N4CCN(C(=O)O[C@@H]5CCOC5)CC4)ccnc3[nH]2)cn1 [Compound 154]
61 | ≤ 10 nM | Cc1nc(-c2cc3c(N4CCN(C(=O)O[C@H]5CCC5(F)F)CC4)ccnc3[nH]2)cn1C [Compound 327]
